Assay results: patent US6458337B1, “Diagnostic imaging contrast agent with improved in serum relaxivity” (Dibra S.p.A, priority 1996, dated 2002)

What was measured:
[1] = Relaxivity (r1, r2) in saline; assay type: physicochemical; details: NaCl 0.15 M in water, pH 7.3, 20 MHz, 39° C.
Description: (§1) Relaxivity values of the contrast agent of the present invention have been tested either in saline or in human serum obtained by Seronorm™ Human, freeze-dried human serum produced by Nycomed Pharma AS, Oslo, Norway. Serum obtained from said Seronorm™ is substantially equivalent to the fresh one, so its use in the relaxivity determination grants a good picture of the “in vivo” behaviour and, further, an excellent reproducibility of this test.

[2] = Relaxivity (r1, r2) in reconstituted human serum (Seronorm™ Human); assay type: physicochemical; details: Between 0 and 1 mM (Seronorm™ Human), 20 MHz, 39° C.
Description: as §1
The compounds object of the present invention are characterised by very high r1 and r2 relaxivity values. When measured in Seronorm™ Human at 20 MHz, at a temperature of 39° C., and at a concentration comprised from 0 to 1 mM, compounds of the present invention usually have r1 relaxivity equal to or, preferably, higher than 15^s−1mM^−1, thus confirming the formation of unexpectedly strong non-covalent bonds with serum proteins. […] Last, significative amounts of the preferred compounds of the invention have also been found in the urines, showing that, thanks to their binding to HSA, the same are very promising as blood pool diagnostic agents.

## O=C(O)CN(CCN(CCN(CC(=O)O)CC(=O)O)C(CCCCNC(=O)C(c1ccccc1)c1ccccc1)C(=O)O)CC(=O)O (centres unmarked)
[1]
  Relaxivity Saline r1: 5.70 mM⁻¹ s⁻¹
[2]
  Relaxivity Serum r1: 20.1 mM⁻¹ s⁻¹
